Laboratory results reported in US11590139B2, “Substituted aminopurine compounds, compositions thereof, and methods of treatment therewith” (Signal Pharmaceuticals, LLC, priority 2014, dated 2023).

System: Lox-IMVI melanoma cell line
Test: Lox-IMVI anti-proliferative assay (growth inhibition, Cell Titer-Glo)
Type: cell-based, human
Settings: Homo sapiens; Lox-IMVI anti-proliferative assay, IC50 activity level; read-out: Activity
Summary of the method: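 IC50 values reflect the concentration giving 50% of DMSO-control luminescence after 72 h of treatment, fitted with a four-parameter logistic model. Cells were cultured in RPMI + 10% FBS with compound from 0.5 nM to 10 μM.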

IC50	Structure (SMILES)
> 1000 nM	C[C@]1(C(N)=O)CC[C@H](n2c(Nc3c(F)cc(Cl)cc3F)nc3cnc(NC4CCOCC4)nc32)CC1 [Example 473, (1r,4r)-4-(8-(4-chloro-2,6-difluorophenylamino)-2-(tetrahydro-2H-pyran-4-ylamino)-9H-purin-9-yl)-1-methylcyclohexanecarboxamide]
> 1000 nM	C[C@]1(C(N)=O)CC[C@H](n2c(Nc3c(Cl)cc(Cl)cc3Cl)nc3cnc(NC4CCOCC4)nc32)CC1 [Example 474, (1r,4r)-1-methyl-4-(2-(tetrahydro-2H-pyran-4-ylamino)-8-(2,4,6-trichlorophenylamino)-9H-purin-9-yl)cyclohexanecarboxamide]
500 to 1000 nM	C[C@]1(C(N)=O)CC[C@H](n2c(Nc3c(Cl)cc(C#N)cc3Cl)nc3cnc(NC4CCOCC4)nc32)CC1 [Example 475, (1r,4r)-4-(8-(2,6-dichloro-4-cyanophenylamino)-2-(tetrahydro-2H-pyran-4-ylamino)-9H-purin-9-yl)-1-methylcyclohexanecarboxamide]
> 1000 nM	C[C@]1(C(N)=O)CC[C@H](n2c(Nc3c(Cl)cc(F)cc3Cl)nc3cnc(NC4CCC(F)(F)CC4)nc32)CC1 [Example 476, (1r,4r)-4-(8-(2,6-dichloro-4-fluorophenylamino)-2-(4,4-difluorocyclohexylamino)-9H-purin-9-yl)-1-methylcyclohexanecarboxamide]
> 1000 nM	C[C@]1(C(N)=O)CC[C@H](n2c(Nc3c(F)cc(F)cc3Cl)nc3cnc(NC4CCC(F)(F)CC4)nc32)CC1 [Example 477, (1r,4r)-4-(8-(2-chloro-4,6-difluorophenylamino)-2-(4,4-difluorocyclohexylamino)-9H-purin-9-yl)-1-methylcyclohexanecarboxamide]
> 1000 nM	C[C@]1(C(N)=O)CC[C@H](n2c(Nc3c(F)cc(Cl)cc3Cl)nc3cnc(NC4CCC(F)(F)CC4)nc32)CC1 [Example 478, (1r,4r)-4-(8-(2,4-dichloro-6-fluorophenylamino)-2-(4,4-difluorocyclohexylamino)-9H-purin-9-yl)-1-methylcyclohexanecarboxamide]
> 1000 nM	C[C@]1(C(N)=O)CC[C@H](n2c(Nc3c(Cl)cc(C#N)cc3Cl)nc3cnc(NC4CCC(F)(F)CC4)nc32)CC1 [Example 479, (1r,4r)-4-(8-(2,6-dichloro-4-cyanophenylamino)-2-(4,4-difluorocyclohexylamino)-9H-purin-9-yl)-1-methylcyclohexanecarboxamide]
> 1000 nM	C[C@@H](CO)Nc1ncc2nc(Nc3c(Cl)cc(C(F)(F)F)cc3Cl)n([C@H]3CC[C@](C)(C(N)=O)CC3)c2n1 [Example 480, (1S,4r)-4-(8-(2,6-dichloro-4-(trifluoromethyl)phenylamino)-2-((S)-1-hydroxypropan-2-ylamino)-9H-purin-9-yl)-1-methylcyclohexanecarboxamide]
> 1000 nM	C[C@@H](CO)Nc1ncc2nc(Nc3c(Cl)cc(Cl)cc3Cl)n([C@H]3CC[C@](C)(C(N)=O)CC3)c2n1 [Example 481, (1S,4r)-4-(2-((S)-1-hydroxypropan-2-ylamino)-8-(2,4,6-trichlorophenylamino)-9H-purin-9-yl)-1-methylcyclohexanecarboxamide]
> 1000 nM	CC(C)(CO)CNc1ncc2nc(Nc3c(Cl)cc(C#N)cc3Cl)n([C@H]3CC[C@@H](C(N)=O)CC3)c2n1 [Example 482, (1s,4s)-4-(8-(2,6-dichloro-4-cyanophenylamino)-2-(3-hydroxy-2,2-dimethylpropylamino)-9H-purin-9-yl)cyclohexanecarboxamide]
> 1000 nM	NC(=O)[C@H]1CC[C@@H](n2c(Nc3c(Cl)cc(Cl)cc3Cl)nc3cnc(N[C@@H]4CCCC[C@@H]4O)nc32)CC1 [Example 483, (1S,4s)-4-(2-((1R,2S)-2-hydroxycyclohexylamino)-8-(2,4,6-trichlorophenylamino)-9H-purin-9-yl)cyclohexanecarboxamide]
> 1000 nM	C[C@]1(C(N)=O)CC[C@H](n2c(Nc3c(F)cc(Cl)cc3Cl)nc3cnc(N[C@@H]4CCC[C@H](O)C4)nc32)CC1 [Example 484, (1R,4r)-4-(8-(2,4-dichloro-6-fluorophenylamino)-2-((1R,3S)-3-hydroxycyclohexylamino)-9H-purin-9-yl)-1-methylcyclohexanecarboxamide]
500 to 1000 nM	C[C@]1(C(N)=O)CC[C@H](n2c(Nc3c(Cl)cc(C#N)cc3Cl)nc3cnc(NC4CCCC4)nc32)CC1 [Example 485, (1r,4r)-4-(2-(cyclopentylamino)-8-(2,6-dichloro-4-cyanophenylamino)-9H-purin-9-yl)-1-methylcyclohexanecarboxamide]
500 to 1000 nM	C[C@]1(C(N)=O)CC[C@H](n2c(Nc3c(F)cc(C#N)cc3Cl)nc3cnc(NC4CCCC4)nc32)CC1 [Example 486, (1r,4r)-4-(8-(2-chloro-4-cyano-6-fluorophenylamino)-2-(cyclopentylamino)-9H-purin-9-yl)-1-methylcyclohexanecarboxamide]
> 1000 nM	C[C@]1(C(N)=O)CC[C@H](n2c(Nc3c(F)cc(C#N)cc3F)nc3cnc(NC4CCCC4)nc32)CC1 [Example 487, (1r,4r)-4-(8-(4-cyano-2,6-difluorophenylamino)-2-(cyclopentylamino)-9H-purin-9-yl)-1-methylcyclohexanecarboxamide]
> 1000 nM	C[C@]1(C(N)=O)CC[C@H](n2c(Nc3c(Cl)cc(C(F)(F)F)cc3Cl)nc3cnc(NC4CCCC4)nc32)CC1 [Example 488, (1r,4r)-4-(2-(cyclopentylamino)-8-(2,6-dichloro-4-(trifluoromethyl)phenylamino)-9H-purin-9-yl)-1-methylcyclohexanecarboxamide]
> 1000 nM	C[C@]1(C(N)=O)CC[C@H](n2c(Nc3c(F)cc(Cl)cc3F)nc3cnc(NC4CCCC4)nc32)CC1 [Example 489, (1r,4r)-4-(8-(4-chloro-2,6-difluorophenylamino)-2-(cyclopentylamino)-9H-purin-9-yl)-1-methylcyclohexanecarboxamide]
> 1000 nM	C[C@]1(C(N)=O)CC[C@H](n2c(Nc3c(Cl)cc(Cl)cc3Cl)nc3cnc(NC4CCCC4)nc32)CC1 [Example 490, (1r,4r)-4-(2-(cyclopentylamino)-8-(2,4,6-trichlorophenylamino)-9H-purin-9-yl)-1-methylcyclohexanecarboxamide]
> 1000 nM	C[C@]1(C(N)=O)CC[C@H](n2c(Nc3c(F)cc(F)cc3Cl)nc3cnc(NC4CCCC4)nc32)CC1 [Example 491, (1r,4r)-4-(8-(2-chloro-4,6-difluorophenylamino)-2-(cyclopentylamino)-9H-purin-9-yl)-1-methylcyclohexanecarboxamide]
500 to 1000 nM	C[C@]1(C(N)=O)CC[C@H](n2c(Nc3c(F)cc(Cl)cc3Cl)nc3cnc(NC4CCCC4)nc32)CC1 [Example 492, (1r,4r)-4-(2-(cyclopentylamino)-8-(2,4-dichloro-6-fluorophenylamino)-9H-purin-9-yl)-1-methylcyclohexanecarboxamide]
> 1000 nM	C[C@]1(C(N)=O)CC[C@H](n2c(Nc3c(Cl)cc(F)cc3Cl)nc3cnc(NC4CCCC4)nc32)CC1 [Example 493, (1r,4r)-4-(2-(cyclopentylamino)-8-(2,6-dichloro-4-fluorophenylamino)-9H-purin-9-yl)-1-methylcyclohexanecarboxamide]
> 1000 nM	C[C@]1(C(N)=O)CC[C@H](n2c(Nc3c(F)cc(F)cc3F)nc3cnc(NC4CCCC4)nc32)CC1 [Example 494, (1r,4r)-4-(2-(cyclopentylamino)-8-(2,4,6-trifluorophenylamino)-9H-purin-9-yl)-1-methylcyclohexanecarboxamide]
< 250 nM	C[C@@H]1COCC[C@H]1Nc1ncc2nc(Nc3c(Cl)cc(C#N)cc3Cl)n([C@H]3CC[C@@H](C(N)=O)CC3)c2n1 [Example 495, (1S,4s)-4-(8-(2,6-dichloro-4-cyanophenylamino)-2-((3S,4R)-3-methyltetrahydro-2H-pyran-4-ylamino)-9H-purin-9-yl)cyclohexanecarboxamide]
250 to 500 nM	C[C@H]1COCC[C@@H]1Nc1ncc2nc(Nc3c(Cl)cc(C#N)cc3Cl)n([C@H]3CC[C@@H](C(N)=O)CC3)c2n1 [Example 496, (1R,4s)-4-(8-(2,6-dichloro-4-cyanophenylamino)-2-((3R,4S)-3-methyltetrahydro-2H-pyran-4-ylamino)-9H-purin-9-yl)cyclohexanecarboxamide]
< 250 nM	C[C@H]1COCC[C@H]1Nc1ncc2nc(Nc3c(Cl)cc(C#N)cc3Cl)n([C@H]3CC[C@@H](C(N)=O)CC3)c2n1 [Example 497, (1S,4s)-4-(8-(2,6-dichloro-4-cyanophenylamino)-2-((3R,4R)-3-methyltetrahydro-2H-pyran-4-ylamino)-9H-purin-9-yl)cyclohexanecarboxamide]
250 to 500 nM	C[C@@H]1COCC[C@@H]1Nc1ncc2nc(Nc3c(Cl)cc(C#N)cc3Cl)n([C@H]3CC[C@@H](C(N)=O)CC3)c2n1 [Example 498, (1R,4s)-4-(8-(2,6-dichloro-4-cyanophenylamino)-2-((3S,4S)-3-methyltetrahydro-2H-pyran-4-ylamino)-9H-purin-9-yl)cyclohexanecarboxamide]
< 250 nM	C[C@@H]1COCC[C@H]1Nc1ncc2nc(Nc3c(Cl)cc(Cl)cc3Cl)n([C@H]3CC[C@@H](C(N)=O)CC3)c2n1 [Example 499, (1S,4s)-4-(2-((3S,4R)-3-methyltetrahydro-2H-pyran-4-ylamino)-8-(2,4,6-trichlorophenylamino)-9H-purin-9-yl)cyclohexanecarboxamide]
500 to 1000 nM	C[C@H]1COCC[C@@H]1Nc1ncc2nc(Nc3c(Cl)cc(Cl)cc3Cl)n([C@H]3CC[C@@H](C(N)=O)CC3)c2n1 [Example 500, (1R,4s)-4-(2-((3R,4S)-3-methyltetrahydro-2H-pyran-4-ylamino)-8-(2,4,6-trichlorophenylamino)-9H-purin-9-yl)cyclohexanecarboxamide]
250 to 500 nM	C[C@H]1COCC[C@H]1Nc1ncc2nc(Nc3c(Cl)cc(Cl)cc3Cl)n([C@H]3CC[C@@H](C(N)=O)CC3)c2n1 [Example 501, (1S,4s)-4-(2-((3R,4R)-3-methyltetrahydro-2H-pyran-4-ylamino)-8-(2,4,6-trichlorophenylamino)-9H-purin-9-yl)cyclohexanecarboxamide]
